According to PubChem BioAssay AID1963874 (Molecular Pharmacology Branch, DTP, NCI, 2024):

System: 253994-281-T-J1-PDC KRAS-mutant spheroids with HUVEC/MSC, viability
Assay: Anticancer human tumor 253994-281-T-J1-PDC patient-derived colorectal carcinoma cell line growth inhibition [KRAS2]
Details: for IC50: curve of first compound; for viability, T/C: stronger effect = lower value
How it was run: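 KRAS-mutant tumor cells were grown as spheroids with HUVEC endothelial cells and human MSCs as stroma. Targeted agents were tested alone and with KRAS pathway inhibitors. Doses started at or near clinical Cmax, or 10 microM, descending half-log.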

[1] = second compound 0.1 µM, first compound 0.000316 µM
[2] = second compound 0.1 µM, first compound 0.001 µM
[3] = second compound 0.1 µM, first compound 0.00316 µM
[4] = second compound 0.1 µM, first compound 0.01 µM
[5] = second compound 0.1 µM, first compound 0.0316 µM
[6] = second compound 0.316 µM, first compound 0.000316 µM
[7] = second compound 0.316 µM, first compound 0.001 µM
[8] = second compound 0.316 µM, first compound 0.00316 µM
[9] = second compound 0.316 µM, first compound 0.01 µM
[10] = second compound 0.316 µM, first compound 0.0316 µM
[11] = second compound 1 µM, first compound 0.000316 µM
[12] = second compound 1 µM, first compound 0.001 µM
[13] = second compound 1 µM, first compound 0.00316 µM
[14] = second compound 1 µM, first compound 0.01 µM
[15] = second compound 1 µM, first compound 0.0316 µM
[16] = second compound 3.16 µM, first compound 0.000316 µM
[17] = second compound 3.16 µM, first compound 0.001 µM
[18] = second compound 3.16 µM, first compound 0.00316 µM
[19] = second compound 3.16 µM, first compound 0.01 µM
[20] = second compound 3.16 µM, first compound 0.0316 µM
[21] = second compound 10 µM, first compound 0.000316 µM
[22] = second compound 10 µM, first compound 0.001 µM
[23] = second compound 10 µM, first compound 0.00316 µM
[24] = second compound 10 µM, first compound 0.01 µM
[25] = second compound 10 µM, first compound 0.0316 µM
[26] = second compound 0.1 µM, first compound 0.1 µM
[27] = second compound 0.1 µM, first compound 0.316 µM
[28] = second compound 0.1 µM, first compound 1 µM
[29] = second compound 0.1 µM, first compound 3.16 µM
[30] = second compound 0.316 µM, first compound 0.1 µM
[31] = second compound 0.316 µM, first compound 0.316 µM
[32] = second compound 0.316 µM, first compound 1 µM
[33] = second compound 0.316 µM, first compound 3.16 µM
[34] = second compound 1 µM, first compound 0.1 µM
[35] = second compound 1 µM, first compound 0.316 µM
[36] = second compound 1 µM, first compound 1 µM
[37] = second compound 1 µM, first compound 3.16 µM
[38] = second compound 3.16 µM, first compound 0.1 µM
[39] = second compound 3.16 µM, first compound 0.316 µM
[40] = second compound 3.16 µM, first compound 1 µM
[41] = second compound 3.16 µM, first compound 3.16 µM
[42] = second compound 10 µM, first compound 0.1 µM
[43] = second compound 10 µM, first compound 0.316 µM
[44] = second compound 10 µM, first compound 1 µM
[45] = second compound 10 µM, first compound 3.16 µM
[46] = second compound 0.1 µM, first compound 10 µM
[47] = second compound 0.316 µM, first compound 10 µM
[48] = second compound 1 µM, first compound 10 µM
[49] = second compound 3.16 µM, first compound 10 µM
[50] = second compound 10 µM, first compound 10 µM
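Further: spheroids exposed to agents for seven days before readout.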
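Wherever viability, T/C is given: percent of DMSO vehicle control viability.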

CC(=O)Nc1cccc(-n2c(=O)n(C3CC3)c(=O)c3c(Nc4ccc(I)cc4F)n(C)c(=O)c(C)c32)c1 + CC1OCC2(CCN(c3cnc(Sc4ccnc(N)c4Cl)c(N)n3)CC2)C1N
IC50 (second compound 0.1 µM): 0.565 nM
IC50 (second compound 0.316 µM): 0.205 nM
IC50 (second compound 1 µM): < 0.1 nM
IC50 (second compound 3.16 µM): < 0.1 nM
IC50 (second compound 10 µM): < 0.1 nM
viability, T/C (second compound 0.1 µM, first compound 0.0001 µM): 64.3%
viability, T/C [1]: 68.6%
viability, T/C [2]: 34.1%
viability, T/C [3]: 17.9%
viability, T/C [4]: 10.1%
viability, T/C [5]: 5.82%
viability, T/C (second compound 0.316 µM, first compound 0.0001 µM): 63.1%
viability, T/C [6]: 42.8%
viability, T/C [7]: 22.3%
viability, T/C [8]: 14.1%
viability, T/C [9]: 8.18%
viability, T/C [10]: 4.42%
viability, T/C (second compound 1 µM, first compound 0.0001 µM): 40.5%
viability, T/C [11]: 27.7%
viability, T/C [12]: 14.1%
viability, T/C [13]: 9.38%
viability, T/C [14]: 7.13%
viability, T/C [15]: 4.04%
viability, T/C (second compound 3.16 µM, first compound 0.0001 µM): 29.3%
viability, T/C [16]: 23.6%
viability, T/C [17]: 10.8%
viability, T/C [18]: 5.83%
viability, T/C [19]: 6.59%
viability, T/C [20]: 3.09%
viability, T/C (second compound 10 µM, first compound 0.0001 µM): 16.5%
viability, T/C [21]: 7.93%
viability, T/C [22]: 5.92%
viability, T/C [23]: 4.52%
viability, T/C [24]: 3.06%
viability, T/C [25]: 2.51%

CC(=O)OC12COC1CC(O)C1(C)C(=O)C(O)C3=C(C)C(OC(=O)C(O)C(NC(=O)OC(C)(C)C)c4ccccc4)CC(O)(C(OC(=O)c4ccccc4)C21)C3(C)C (stereo not given) + CC1OCC2(CCN(c3cnc(Sc4ccnc(N)c4Cl)c(N)n3)CC2)C1N
IC50 (second compound 0.1 µM): 20.4 nM
IC50 (second compound 0.316 µM): < 10 nM
IC50 (second compound 1 µM): 27.1 nM
IC50 (second compound 3.16 µM): < 10 nM
IC50 (second compound 10 µM): < 10 nM
viability, T/C [4]: 68.7%
viability, T/C [5]: 39.5%
viability, T/C [26]: 26.3%
viability, T/C [27]: 23.2%
viability, T/C [28]: 27.5%
viability, T/C [29]: 21.8%
viability, T/C [9]: 48.8%
viability, T/C [10]: 29.2%
viability, T/C [30]: 18.4%
viability, T/C [31]: 19.2%
viability, T/C [32]: 20.3%
viability, T/C [33]: 18.1%
viability, T/C [14]: 92%
viability, T/C [15]: 42%
viability, T/C [34]: 31.2%
viability, T/C [35]: 24%
viability, T/C [36]: 21%
viability, T/C [37]: 21.7%
viability, T/C [19]: 19.8%
viability, T/C [20]: 18%
viability, T/C [38]: 11.9%
viability, T/C [39]: 11.7%
viability, T/C [40]: 14.8%
viability, T/C [41]: 12.5%
viability, T/C [24]: 20%
viability, T/C [25]: 14.4%
viability, T/C [42]: 13.3%
viability, T/C [43]: 12.8%
viability, T/C [44]: 10.5%
viability, T/C [45]: 11.8%

CN(C)C/C=C/C(=O)Nc1cc2c(Nc3ccc(F)c(Cl)c3)ncnc2cc1O[C@H]1CCOC1 + CC1OCC2(CCN(c3cnc(Sc4ccnc(N)c4Cl)c(N)n3)CC2)C1N
IC50 (second compound 0.1 µM): > 100 nM
IC50 (second compound 0.316 µM): 86.5 nM
IC50 (second compound 1 µM): > 100 nM
IC50 (second compound 3.16 µM): < 0.316 nM
IC50 (second compound 10 µM): > 100 nM
viability, T/C [1]: 85.5%
viability, T/C [2]: 74.8%
viability, T/C [3]: 91.2%
viability, T/C [4]: 79.3%
viability, T/C [5]: 81.4%
viability, T/C [26]: 58.5%
viability, T/C [6]: 57.1%
viability, T/C [7]: 72.1%
viability, T/C [8]: 79.6%
viability, T/C [9]: 70.6%
viability, T/C [10]: 74%
viability, T/C [30]: 47%
viability, T/C [11]: 79%
viability, T/C [12]: 97%
viability, T/C [13]: 79.5%
viability, T/C [14]: 86.3%
viability, T/C [15]: 86.2%
viability, T/C [34]: 83.5%
viability, T/C [16]: 31.1%
viability, T/C [17]: 37.2%
viability, T/C [18]: 37.3%
viability, T/C [19]: 42.9%
viability, T/C [20]: 37.6%
viability, T/C [38]: 31.4%
viability, T/C [21]: 75.4%
viability, T/C [22]: 102%
viability, T/C [23]: 78.1%
viability, T/C [24]: 106%
viability, T/C [25]: 83.7%
viability, T/C [42]: 65.7%

COC(=O)c1ccc2c(C(=Nc3ccc(N(C)C(=O)CN4CCN(C)CC4)cc3)c3ccccc3)c(O)[nH]c2c1 + CC1OCC2(CCN(c3cnc(Sc4ccnc(N)c4Cl)c(N)n3)CC2)C1N
IC50 (second compound 0.1 µM): > 10000 nM
IC50 (second compound 0.316 µM): 3480 nM
IC50 (second compound 1 µM): 1460 nM
IC50 (second compound 3.16 µM): 156 nM
IC50 (second compound 10 µM): < 31.6 nM
viability, T/C [5]: 97.8%
viability, T/C [26]: 87.2%
viability, T/C [27]: 82.7%
viability, T/C [28]: 85.3%
viability, T/C [29]: 81.8%
viability, T/C [46]: 70.7%
viability, T/C [10]: 82.7%
viability, T/C [30]: 67%
viability, T/C [31]: 68.9%
viability, T/C [32]: 85.2%
viability, T/C [33]: 53.2%
viability, T/C [47]: 15%
viability, T/C [15]: 53.8%
viability, T/C [34]: 50.9%
viability, T/C [35]: 62.1%
viability, T/C [36]: 51.7%
viability, T/C [37]: 43.3%
viability, T/C [48]: 17.8%
viability, T/C [20]: 56.1%
viability, T/C [38]: 52%
viability, T/C [39]: 42.9%
viability, T/C [40]: 40.7%
viability, T/C [41]: 26.8%
viability, T/C [49]: 1.64%
viability, T/C [25]: 35%
viability, T/C [42]: 35%
viability, T/C [43]: 31.4%
viability, T/C [44]: 20%
viability, T/C [45]: 4.21%
viability, T/C [50]: 0.83%

COc1cc(Nc2ncc3c(n2)-c2ccc(Cl)cc2C(c2c(F)cccc2OC)=NC3)ccc1C(=O)O + CC1OCC2(CCN(c3cnc(Sc4ccnc(N)c4Cl)c(N)n3)CC2)C1N
IC50 (second compound 0.1 µM): < 31.6 nM
IC50 (second compound 0.316 µM): < 31.6 nM
IC50 (second compound 1 µM): < 31.6 nM
IC50 (second compound 3.16 µM): < 31.6 nM
IC50 (second compound 10 µM): < 31.6 nM
viability, T/C [5]: 51%
viability, T/C [26]: 25.3%
viability, T/C [27]: 24.6%
viability, T/C [28]: 28.7%
viability, T/C [29]: 40.4%
viability, T/C [46]: 42.6%
viability, T/C [10]: 34.6%
viability, T/C [30]: 21.5%
viability, T/C [31]: 22%
viability, T/C [32]: 26%
viability, T/C [33]: 25.8%
viability, T/C [47]: 23.7%
viability, T/C [15]: 23.4%
viability, T/C [34]: 16.7%
viability, T/C [35]: 17.7%
viability, T/C [36]: 19.6%
viability, T/C [37]: 18.7%
viability, T/C [48]: 20.1%
viability, T/C [20]: 19.5%
viability, T/C [38]: 14.2%
viability, T/C [39]: 14.1%
viability, T/C [40]: 18.5%
viability, T/C [41]: 14.2%
viability, T/C [49]: 21%
viability, T/C [25]: 13.3%
viability, T/C [42]: 12.5%
viability, T/C [43]: 10.3%
viability, T/C [44]: 9.72%
viability, T/C [45]: 10.8%
viability, T/C [50]: 9.48%

O=C(c1cc(Cc2n[nH]c(=O)c3ccccc23)ccc1F)N1CCN(C(=O)C2CC2)CC1 + CC1OCC2(CCN(c3cnc(Sc4ccnc(N)c4Cl)c(N)n3)CC2)C1N
IC50 (second compound 0.1 µM): > 10000 nM
IC50 (second compound 0.316 µM): > 10000 nM
IC50 (second compound 1 µM): > 10000 nM
IC50 (second compound 3.16 µM): < 31.6 nM
IC50 (second compound 10 µM): 655 nM
viability, T/C [5]: 99%
viability, T/C [26]: 81.4%
viability, T/C [27]: 93.7%
viability, T/C [28]: 90.7%
viability, T/C [29]: 84.2%
viability, T/C [46]: 95.5%
viability, T/C [10]: 79.8%
viability, T/C [30]: 65.7%
viability, T/C [31]: 62.9%
viability, T/C [32]: 120%
viability, T/C [33]: 84.6%
viability, T/C [47]: 79.5%
viability, T/C [15]: 93.3%
viability, T/C [34]: 94.1%
viability, T/C [35]: 93.2%
viability, T/C [36]: 81%
viability, T/C [37]: 80.2%
viability, T/C [48]: 90.7%
viability, T/C [20]: 52.8%
viability, T/C [38]: 46.2%
viability, T/C [39]: 46.5%
viability, T/C [40]: 48.4%
viability, T/C [41]: 45.6%
viability, T/C [49]: 57.6%
viability, T/C [25]: 47.2%
viability, T/C [42]: 45.5%
viability, T/C [43]: 115%
viability, T/C [44]: 38.8%
viability, T/C [45]: 31.6%
viability, T/C [50]: 30.4%
